Source: patent US8735584B2 (Merck Patent GmbH, priority 2008, dated 2014)
Values belong to the molecule of their own block, whether it stands above or below them.

How the values were obtained:
ABL = target: T1, ABL (Homo sapiens, UniProt P00519); assay: Desktop Profiler kinase panel, ABL; assay type: biochemical; conditions: for inhibition at 10 µM: 10 micromolar concentration of the compound, read-out: Percent Inhibition ABL; for inhibition at 1 µM: 1 micromolar concentration of the compound
T1 construct: purchased Caliper Life Sciences
Method: (§1) The Aurora assays described here are performed on two Caliper Life Sciences systems: the LC3000 and the Desktop Profiler. These provide data on enzyme activity via measurement of the relative amounts of phosphorylated or unphosphorylated fluorescently labelled substrate peptide at the end of an enzymatic reaction. These different states of peptide are resolved by applying a potential difference across the sample. The presence of the charged phosphate group on the product (as opposed to the substrate) causes a different peptide mobility between the two peptides. This is visualized by excitation of the fluorescent label on the substrate and product peptides and represented as peaks within the analysis software.
(§2) The Desktop Profiler utilizes the same principle as the LC3000 for calculating percentage conversion of a substrate to product. Caliper Life Sciences provides proprietary flash frozen pre-made 384 well plates containing selected kinases. Each column in the 384 well plate contains a particular selected kinase. A second plate, the ‘substrate plate’ contains a mix of fluorescently labeled peptide substrate and ATP. These are arranged in columns so that transfer for substrate plate to enzyme plate provides the correct enzyme with the correct substrate/ATP concentration. Compounds are added to a thawed enzyme plate in the desired format, in single concentrations. Reactions are initiated by transfer of the substrate/ATP mix from the substrate plate. The enzyme plate is incubated for 90 mins at 25 C. The reaction is stopped by addition of 70 ul of Stop Buffer (100 mM HEPES pH 7.5, 0.015% Brij-35, 10 mM EDTA (Sigma, E7889)).
(§3) Reading of the plate in the Profiler is identical to the LC3000, and the ratio between substrate and product peaks provides the activity of the enzyme in that well. This is best represented by a plate heat map which colors each well by percent inhibition as compared to positive and negative controls (no inhibitors and no ATP respectively).
(§4) In the following Tables 3a-4-b, which show the results of the desktop profiler measurements, “+” means 50-70% inhibition, “++” means 70-90% inhibition, and “+++” means >90% inhibition. The enzymes tested for profiling were ABL, AKT1, AKT2, AurA, CHK1, CHK2, CK1d, Erk1, Erk2, FYN, GSK3b, INSR, LCK, LYN, MAPKAPK2, MET, MSK1, p38a, PKA, PKCz, PKD2, PRAK, RSK1 and SRC.

GSK3b = target: T2, GSK3b (Homo sapiens, UniProt P49841); assay: Desktop Profiler kinase panel, GSK3b; assay type: biochemical; conditions: 10 micromolar concentration of the compound; read-out: Percent Inhibition GSK3b
T2 construct: purchased Caliper Life Sciences
Method: as §1, §2, §3, §4

CK1d = target: T3, CK1d (Homo sapiens, UniProt P48730); assay: Desktop Profiler kinase panel, CK1d; assay type: biochemical; conditions: for inhibition at 10 µM: 10 micromolar concentration of the compound, read-out: Percent Inhibition CK1d
T3 construct: purchased Caliper Life Sciences
Method: as §1, §2, §3, §4

PKA = target: T4, PKA (Homo sapiens, UniProt P17612); assay: Desktop Profiler kinase panel, PKA; assay type: biochemical; conditions: 10 micromolar concentration of the compound; read-out: Percent Inhibition PKA
T4 construct: purchased Caliper Life Sciences
Method: as §1, §2, §3, §4

LYN = target: T5, LYN (Homo sapiens, UniProt P07948); assay: Desktop Profiler kinase panel, LYN; assay type: biochemical; conditions: for inhibition at 1 µM: 1 micromolar concentration of the compound; for inhibition at 10 µM: 10 micromolar concentration of the compound, read-out: Percent Inhibition LYN
T5 construct: purchased Caliper Life Sciences
Method: as §1, §2, §3, §4

PKD2 = target: T6, PKD2 (Homo sapiens, UniProt Q9BZL6); assay: Desktop Profiler kinase panel, PKD2; assay type: biochemical; conditions: 10 micromolar concentration of the compound; read-out: Percent Inhibition PKD2
T6 construct: purchased Caliper Life Sciences
T6 sequence (Q9BZL6 1-878): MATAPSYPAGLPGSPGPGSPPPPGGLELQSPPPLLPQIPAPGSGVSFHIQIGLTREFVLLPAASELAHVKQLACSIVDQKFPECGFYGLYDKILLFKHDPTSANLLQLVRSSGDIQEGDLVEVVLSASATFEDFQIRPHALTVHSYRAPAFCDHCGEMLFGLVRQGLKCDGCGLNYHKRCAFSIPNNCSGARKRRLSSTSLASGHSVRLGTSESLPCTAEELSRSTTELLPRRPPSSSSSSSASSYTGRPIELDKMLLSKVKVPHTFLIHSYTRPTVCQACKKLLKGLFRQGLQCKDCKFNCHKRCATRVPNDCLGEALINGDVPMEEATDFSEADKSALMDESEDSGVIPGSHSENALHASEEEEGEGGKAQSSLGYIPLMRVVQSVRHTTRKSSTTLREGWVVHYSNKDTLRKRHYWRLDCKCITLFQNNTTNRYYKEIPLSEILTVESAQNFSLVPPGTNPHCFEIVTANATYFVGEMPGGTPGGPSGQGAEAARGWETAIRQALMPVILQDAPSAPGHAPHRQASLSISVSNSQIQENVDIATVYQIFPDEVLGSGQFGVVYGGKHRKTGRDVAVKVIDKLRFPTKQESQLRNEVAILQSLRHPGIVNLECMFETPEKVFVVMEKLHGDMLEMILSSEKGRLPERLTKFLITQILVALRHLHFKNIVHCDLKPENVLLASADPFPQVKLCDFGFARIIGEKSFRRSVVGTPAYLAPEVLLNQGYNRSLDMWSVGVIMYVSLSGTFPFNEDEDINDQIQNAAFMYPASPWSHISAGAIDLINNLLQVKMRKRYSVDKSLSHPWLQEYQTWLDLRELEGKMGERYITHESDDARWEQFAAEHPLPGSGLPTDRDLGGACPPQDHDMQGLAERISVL
Method: as §1, §2, §3, §4

AKT2 = target: T7, AKT2 (Homo sapiens, UniProt P31751); assay: Desktop Profiler kinase panel, AKT2; assay type: biochemical; conditions: 10 micromolar concentration of the compound; read-out: Percent Inhibition AKT2
T7 construct: purchased Caliper Life Sciences
Method: as §1, §2, §3, §4

AurA = target: T8, AurA (Homo sapiens, UniProt O14965); assay: Desktop Profiler kinase panel, AurA; assay type: biochemical; conditions: for inhibition at 10 µM: 10 micromolar concentration of the compound, read-out: Percent Inhibition AurA
T8 construct: purchased Caliper Life Sciences
T8 sequence (O14965 1-403): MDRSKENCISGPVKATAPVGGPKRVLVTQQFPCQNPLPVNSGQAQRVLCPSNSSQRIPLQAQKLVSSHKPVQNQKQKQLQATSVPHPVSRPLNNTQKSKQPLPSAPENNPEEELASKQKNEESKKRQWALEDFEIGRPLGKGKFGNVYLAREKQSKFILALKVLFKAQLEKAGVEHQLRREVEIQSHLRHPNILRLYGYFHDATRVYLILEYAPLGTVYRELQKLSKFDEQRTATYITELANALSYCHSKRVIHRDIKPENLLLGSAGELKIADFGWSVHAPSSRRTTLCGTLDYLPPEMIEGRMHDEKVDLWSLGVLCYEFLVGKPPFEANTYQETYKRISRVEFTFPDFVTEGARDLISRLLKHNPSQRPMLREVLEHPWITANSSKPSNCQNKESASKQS
Method: as §1, §2, §3, §4

FYN = target: T9, FYN (Homo sapiens, UniProt P06241); assay: Desktop Profiler kinase panel, FYN; assay type: biochemical; conditions: for inhibition at 1 µM: 1 micromolar concentration of the compound; for inhibition at 10 µM: 10 micromolar concentration of the compound, read-out: Percent Inhibition FYN
T9 construct: purchased Caliper Life Sciences
Method: as §1, §2, §3, §4

CHK2 = target: T10, CHK2 (Homo sapiens, UniProt O96017); assay: Desktop Profiler kinase panel, CHK2; assay type: biochemical; conditions: for inhibition at 10 µM: 10 micromolar concentration of the compound, read-out: Percent Inhibition CHK2
T10 construct: purchased Caliper Life Sciences
Method: as §1, §2, §3, §4

SRC = target: T11, SRC (Homo sapiens, UniProt P12931); assay: Desktop Profiler kinase panel, SRC; assay type: biochemical; conditions: for inhibition at 1 µM: 1 micromolar concentration of the compound; for inhibition at 10 µM: 10 micromolar concentration of the compound, read-out: Percent Inhibition SRC
T11 construct: purchased Caliper Life Sciences
Method: as §1, §2, §3, §4

p38a = target: T12, p38a (Homo sapiens, UniProt Q16539); assay: Desktop Profiler kinase panel, p38a; assay type: biochemical; conditions: 1 micromolar concentration of the compound
T12 construct: purchased Caliper Life Sciences
Method: as §1
The Desktop Profiler utilizes the same principle as the LC3000 for calculating percentage conversion of a substrate to product. Caliper Life Sciences provides proprietary flash frozen pre-made 384 well plates containing selected kinases. Each column in the 384 well plate contains a particular selected kinase. A second plate, the ‘substrate plate’ contains a mix of fluorescently labeled peptide substrate and ATP. […]
Reading of the plate in the Profiler is identical to the LC3000, and the ratio between substrate and product peaks provides the activity of the enzyme in that well. […]

RSK1 = target: T13, RSK1 (Homo sapiens, UniProt Q15418); assay: Desktop Profiler kinase panel, RSK1; assay type: biochemical; conditions: 10 micromolar concentration of the compound; read-out: Percent Inhibition RSK1
T13 construct: purchased Caliper Life Sciences
Method: as §1, §2, §3, §4

LCK = target: T14, LCK (Homo sapiens, UniProt P06239); assay: Desktop Profiler kinase panel, LCK; assay type: biochemical
T14 construct: purchased Caliper Life Sciences
Method: as §1, §2, §3, §4

[1] = system: tumor cells of various origins / normal human cells; conditions: in vitro; cited from earlier work
human tumor xenograft = human tumor xenograft model; several intermittent dosing schedules; cited from earlier work
[2] = system: leukemia, colon and pancreatic tumors; conditions: variety of in vivo xenograft models; well-tolerated doses; cited from earlier work
[3] = 1 micromolar concentration of the compound

T5 sequence (P07948 whole entry, species assumed): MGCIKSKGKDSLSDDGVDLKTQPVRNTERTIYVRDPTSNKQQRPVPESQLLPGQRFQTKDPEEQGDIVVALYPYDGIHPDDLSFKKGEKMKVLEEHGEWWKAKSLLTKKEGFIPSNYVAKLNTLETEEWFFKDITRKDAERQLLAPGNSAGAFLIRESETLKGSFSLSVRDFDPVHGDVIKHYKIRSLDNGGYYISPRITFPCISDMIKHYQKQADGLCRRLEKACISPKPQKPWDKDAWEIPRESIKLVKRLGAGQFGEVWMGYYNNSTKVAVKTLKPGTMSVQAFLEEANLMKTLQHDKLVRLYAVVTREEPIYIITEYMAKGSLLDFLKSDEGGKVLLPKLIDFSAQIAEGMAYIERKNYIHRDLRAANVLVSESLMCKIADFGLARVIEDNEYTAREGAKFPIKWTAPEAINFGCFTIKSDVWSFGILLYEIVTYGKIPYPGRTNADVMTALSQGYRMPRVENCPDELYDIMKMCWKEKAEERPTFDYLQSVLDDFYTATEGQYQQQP
T9 sequence (P06241 whole entry, species assumed): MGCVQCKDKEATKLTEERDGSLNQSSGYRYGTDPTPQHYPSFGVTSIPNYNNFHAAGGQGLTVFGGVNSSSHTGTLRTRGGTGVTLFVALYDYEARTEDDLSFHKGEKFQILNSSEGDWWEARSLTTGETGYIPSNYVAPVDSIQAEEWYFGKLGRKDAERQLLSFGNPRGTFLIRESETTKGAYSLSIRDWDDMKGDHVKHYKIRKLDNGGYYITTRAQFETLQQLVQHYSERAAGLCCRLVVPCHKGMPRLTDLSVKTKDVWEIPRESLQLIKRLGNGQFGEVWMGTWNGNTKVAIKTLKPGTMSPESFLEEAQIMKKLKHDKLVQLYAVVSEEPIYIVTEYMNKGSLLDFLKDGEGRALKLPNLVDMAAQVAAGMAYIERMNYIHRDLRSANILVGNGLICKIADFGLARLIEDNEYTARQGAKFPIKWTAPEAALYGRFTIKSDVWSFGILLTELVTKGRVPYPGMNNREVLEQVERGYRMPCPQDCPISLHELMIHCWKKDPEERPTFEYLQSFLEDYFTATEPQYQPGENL
T10 sequence (O96017 whole entry, species assumed): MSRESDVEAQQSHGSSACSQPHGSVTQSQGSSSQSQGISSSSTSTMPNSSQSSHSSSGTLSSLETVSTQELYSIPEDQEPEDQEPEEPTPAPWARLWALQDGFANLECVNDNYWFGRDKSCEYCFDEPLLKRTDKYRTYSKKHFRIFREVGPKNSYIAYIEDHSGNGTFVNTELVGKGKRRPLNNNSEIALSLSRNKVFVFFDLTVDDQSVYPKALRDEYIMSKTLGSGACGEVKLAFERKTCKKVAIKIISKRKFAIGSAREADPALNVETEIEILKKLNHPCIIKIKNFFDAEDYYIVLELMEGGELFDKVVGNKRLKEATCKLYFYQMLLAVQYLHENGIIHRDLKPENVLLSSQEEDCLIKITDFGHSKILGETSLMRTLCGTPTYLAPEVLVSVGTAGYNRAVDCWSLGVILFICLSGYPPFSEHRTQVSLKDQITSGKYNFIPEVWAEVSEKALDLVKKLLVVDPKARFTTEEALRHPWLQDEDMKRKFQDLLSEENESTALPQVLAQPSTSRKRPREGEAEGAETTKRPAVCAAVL
T11 sequence (P12931 whole entry, species assumed): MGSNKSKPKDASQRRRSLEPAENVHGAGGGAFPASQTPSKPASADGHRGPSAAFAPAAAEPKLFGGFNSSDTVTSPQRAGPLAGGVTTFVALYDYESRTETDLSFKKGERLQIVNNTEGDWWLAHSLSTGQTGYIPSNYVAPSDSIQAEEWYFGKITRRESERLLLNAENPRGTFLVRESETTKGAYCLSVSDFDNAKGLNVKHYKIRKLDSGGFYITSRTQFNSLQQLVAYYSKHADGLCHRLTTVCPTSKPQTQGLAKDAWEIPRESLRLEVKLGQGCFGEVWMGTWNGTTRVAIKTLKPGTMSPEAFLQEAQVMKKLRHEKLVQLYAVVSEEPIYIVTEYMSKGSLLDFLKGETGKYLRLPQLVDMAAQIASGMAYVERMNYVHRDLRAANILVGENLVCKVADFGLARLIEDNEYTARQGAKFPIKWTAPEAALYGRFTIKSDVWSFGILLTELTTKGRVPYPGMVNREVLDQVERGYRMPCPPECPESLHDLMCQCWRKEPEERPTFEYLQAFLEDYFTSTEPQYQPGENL
T3 sequence (P48730 whole entry): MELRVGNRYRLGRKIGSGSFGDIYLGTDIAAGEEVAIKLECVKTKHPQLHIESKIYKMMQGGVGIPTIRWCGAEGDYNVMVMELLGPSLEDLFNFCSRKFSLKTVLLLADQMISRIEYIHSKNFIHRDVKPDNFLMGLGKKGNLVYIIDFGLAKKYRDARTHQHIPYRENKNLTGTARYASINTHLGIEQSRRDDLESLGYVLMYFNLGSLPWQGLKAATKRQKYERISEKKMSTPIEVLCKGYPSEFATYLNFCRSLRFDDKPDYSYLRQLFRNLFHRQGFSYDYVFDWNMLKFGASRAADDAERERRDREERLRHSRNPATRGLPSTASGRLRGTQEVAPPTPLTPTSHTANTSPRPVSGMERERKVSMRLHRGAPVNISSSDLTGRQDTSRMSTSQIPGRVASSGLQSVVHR
T1 sequence (P00519 whole entry, species assumed): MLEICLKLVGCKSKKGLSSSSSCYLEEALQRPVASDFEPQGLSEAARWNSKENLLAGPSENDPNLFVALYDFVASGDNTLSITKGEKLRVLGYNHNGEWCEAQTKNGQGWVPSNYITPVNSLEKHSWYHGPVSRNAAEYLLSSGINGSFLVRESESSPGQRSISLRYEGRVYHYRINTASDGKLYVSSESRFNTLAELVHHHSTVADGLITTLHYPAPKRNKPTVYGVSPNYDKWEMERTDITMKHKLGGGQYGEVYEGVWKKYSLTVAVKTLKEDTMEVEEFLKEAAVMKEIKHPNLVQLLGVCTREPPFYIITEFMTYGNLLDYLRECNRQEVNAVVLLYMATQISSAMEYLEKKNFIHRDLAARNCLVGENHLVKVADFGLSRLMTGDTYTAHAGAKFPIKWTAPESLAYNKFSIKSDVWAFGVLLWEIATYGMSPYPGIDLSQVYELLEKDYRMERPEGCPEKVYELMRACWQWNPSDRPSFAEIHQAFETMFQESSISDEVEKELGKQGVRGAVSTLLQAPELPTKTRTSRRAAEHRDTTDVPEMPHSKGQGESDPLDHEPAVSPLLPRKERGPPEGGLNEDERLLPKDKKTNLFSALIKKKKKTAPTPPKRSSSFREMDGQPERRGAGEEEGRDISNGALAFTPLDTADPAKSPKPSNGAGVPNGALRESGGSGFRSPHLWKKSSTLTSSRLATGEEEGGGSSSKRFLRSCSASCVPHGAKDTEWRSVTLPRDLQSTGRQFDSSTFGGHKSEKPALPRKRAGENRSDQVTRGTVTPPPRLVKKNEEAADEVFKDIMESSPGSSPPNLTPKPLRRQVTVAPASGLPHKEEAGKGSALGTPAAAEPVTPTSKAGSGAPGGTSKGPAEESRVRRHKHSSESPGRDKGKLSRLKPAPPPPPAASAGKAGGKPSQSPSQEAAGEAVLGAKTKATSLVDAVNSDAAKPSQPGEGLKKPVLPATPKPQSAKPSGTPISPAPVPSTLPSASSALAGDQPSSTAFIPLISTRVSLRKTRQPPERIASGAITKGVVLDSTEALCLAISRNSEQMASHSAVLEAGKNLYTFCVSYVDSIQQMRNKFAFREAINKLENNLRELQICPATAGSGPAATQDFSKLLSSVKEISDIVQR
T14 sequence (P06239 whole entry, species assumed): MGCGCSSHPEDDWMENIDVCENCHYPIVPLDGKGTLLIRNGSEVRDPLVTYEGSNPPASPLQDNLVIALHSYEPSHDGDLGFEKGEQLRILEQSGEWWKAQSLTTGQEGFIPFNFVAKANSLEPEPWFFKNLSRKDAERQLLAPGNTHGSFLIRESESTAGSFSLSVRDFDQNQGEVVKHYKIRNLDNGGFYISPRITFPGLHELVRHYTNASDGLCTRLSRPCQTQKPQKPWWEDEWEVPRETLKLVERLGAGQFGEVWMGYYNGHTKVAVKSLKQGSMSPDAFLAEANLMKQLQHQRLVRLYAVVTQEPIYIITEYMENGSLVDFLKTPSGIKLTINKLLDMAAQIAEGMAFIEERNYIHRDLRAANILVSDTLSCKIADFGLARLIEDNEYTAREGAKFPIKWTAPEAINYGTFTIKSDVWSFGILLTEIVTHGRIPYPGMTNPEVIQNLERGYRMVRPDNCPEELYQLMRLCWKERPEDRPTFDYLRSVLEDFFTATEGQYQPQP
T2 sequence (P49841 whole entry, species assumed): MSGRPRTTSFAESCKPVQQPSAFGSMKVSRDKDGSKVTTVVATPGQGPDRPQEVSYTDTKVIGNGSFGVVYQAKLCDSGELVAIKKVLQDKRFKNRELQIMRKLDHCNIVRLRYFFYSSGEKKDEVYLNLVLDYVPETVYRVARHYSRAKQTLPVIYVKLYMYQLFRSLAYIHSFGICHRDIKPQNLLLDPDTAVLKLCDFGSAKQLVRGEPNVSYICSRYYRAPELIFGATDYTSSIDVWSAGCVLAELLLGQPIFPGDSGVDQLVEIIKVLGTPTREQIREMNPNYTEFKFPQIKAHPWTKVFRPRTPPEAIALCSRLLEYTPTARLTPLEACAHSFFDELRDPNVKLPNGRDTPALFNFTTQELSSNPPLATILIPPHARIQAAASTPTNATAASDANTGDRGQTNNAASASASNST
T12 sequence (Q16539 whole entry): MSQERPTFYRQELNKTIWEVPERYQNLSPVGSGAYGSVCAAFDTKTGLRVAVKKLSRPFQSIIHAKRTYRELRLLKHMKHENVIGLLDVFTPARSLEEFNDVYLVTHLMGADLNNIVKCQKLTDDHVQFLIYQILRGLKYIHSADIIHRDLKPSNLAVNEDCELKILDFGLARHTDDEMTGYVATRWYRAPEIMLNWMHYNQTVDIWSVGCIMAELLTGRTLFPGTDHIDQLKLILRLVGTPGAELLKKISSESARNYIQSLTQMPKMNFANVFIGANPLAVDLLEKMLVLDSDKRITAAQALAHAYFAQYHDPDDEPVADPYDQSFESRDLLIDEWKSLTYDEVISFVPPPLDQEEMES

inhibition at 10 µM (ABL): 50 to 70%
inhibition at 10 µM (GSK3b): 50 to 70%
Compound: Clc1ccc2c(Nc3cccc(Br)c3)nc3ncccc3c2c1 [Example 59, (3-Bromo-phenyl)-(9-chloro-benzo[c][1,8]naphthyridin-6-yl)-amine]

inhibition at 10 µM (CK1d): 50 to 70%
inhibition at 10 µM (PKA): 50 to 70%
Compound: O=c1[nH]c2nccc(Cl)c2c2ccccc12 [Example 83, 1-Chloro-5H-benzo[c][1,8]naphthyridin-6-one]

inhibition at 1 µM (ABL): 70 to 90%
inhibition at 10 µM (ABL): 70 to 90%
inhibition at 1 µM (LYN): 70 to 90%
inhibition at 10 µM (LYN): 70 to 90%
inhibition at 1 µM (CK1d; [3]): 50 to 70%
inhibition at 10 µM (CK1d): 50 to 70%
inhibition at 10 µM (PKD2): 50 to 70%
inhibition at 10 µM (AKT2): 50 to 70%
inhibition at 10 µM (AurA): 70 to 90%
inhibition at 1 µM (FYN): 70 to 90%
inhibition at 10 µM (FYN): 70 to 90%
inhibition at 10 µM (GSK3b): 50 to 70%
inhibition at 10 µM (CHK2): 50 to 70%
inhibition at 1 µM (SRC): 50 to 70%
inhibition at 10 µM (SRC): 50 to 70%
inhibition at 1 µM (p38a): 50 to 70%
Compound: O=c1[nH]c2nccc(NCc3ccccc3)c2c2ccccc12 [Example 96, 1-Benzylamino-5H-benzo[c][1,8]naphthyridin-6-one]

inhibition at 10 µM (LYN): 50 to 70%
inhibition at 10 µM (PKD2): 50 to 70%
inhibition at 10 µM (AurA): 50 to 70%
inhibition at 10 µM (FYN): 50 to 70%
Compound: COc1cccc(CNc2ccnc3[nH]c(=O)c4ccccc4c23)c1 [Example 98, 1-(3-Methoxy-benzylamino)-5H-benzo[c][1,8]naphthyridin-6-one]

inhibition at 10 µM (ABL): 70 to 90%
inhibition at 10 µM (LYN): 70 to 90%
inhibition at 10 µM (RSK1): 50 to 70%
inhibition at 10 µM (FYN): 70 to 90%
inhibition at 10 µM (SRC): 70 to 90%
Compound: Clc1nc2nccc(NCc3ccccc3)c2c2ccccc12 [Example 103, Benzyl-(6-chloro-benzo[c][1,8]naphthyridin-1-yl)-amine]

inhibition at 1 µM (ABL): 50 to 70%
inhibition at 10 µM (ABL): 70 to 90%
inhibition at 1 µM (LYN): 70 to 90%
inhibition at 10 µM (LYN): > 90%
inhibition at 1 µM (AurA; [3]): 50 to 70%
inhibition at 10 µM (AurA): 70 to 90%
inhibition at 10 µM (PKA): 50 to 70%
inhibition at 1 µM (FYN): 70 to 90%
inhibition at 1 µM (LCK; [3]): 50 to 70%
inhibition at 10 µM (LCK; 10 micromolar concentration of the compound, read-out: Percent Inhibition LCK): 70 to 90%
inhibition at 1 µM (CHK2; [3]): 50 to 70%
inhibition at 10 µM (CHK2): 70 to 90%
inhibition at 1 µM (SRC): 70 to 90%
inhibition at 10 µM (SRC): 70 to 90%
Compound: COc1ccc(Nc2ccnc3[nH]c(=O)c4ccccc4c23)cc1 [Example 113, 1-(4-Methoxy-phenylamino)-5H-benzo[c][1,8]naphthyridin-6-one]

Compound: Nc1nc(Nc2ccc(S(N)(=O)=O)cc2)nn1C(=O)c1c(F)cccc1F [JNJ-7706621]
less effective at inhibiting normal human cell growth than tumor cell proliferation [1]: about 10 fold
antitumor activity (human tumor xenograft): significant antitumor activity

Compound: Cc1cc(Nc2cc(N3CCN(C)CC3)nc(Sc3ccc(NC(=O)C4CC4)cc3)n2)n[nH]1 [VX-680]
inhibition of tumor growth [2]: profound inhibition of tumor growth
